Measured values from PubChem BioAssay (NCI).
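Tested at 5 concentrations; 48 h exposure; 96-well plates; endpoints linearly interpolated, else capped at highest concentration. GI50 = concentration required for 50% inhibition of growth. At the TGI there is no net growth.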

How the values were obtained:
Experiment in all cases: inhibition of tumour cell growth, NCI panel, 48 h
DMS 273 small cell lung = system: DMS 273 small cell lung
KM20L2 colon = system: KM20L2 colon
DLD-1 colon = system: DLD-1 colon
IGROV1 ovarian = system: IGROV1 ovarian
COLO 205 colon = system: COLO 205 colon
NCI-H460 lung = system: NCI-H460 lung
K-562 leukemia = system: K-562 leukemia
HL-60(TB) leukemia = system: HL-60(TB) leukemia
T-47D breast = system: T-47D breast
BT-549 breast = system: BT-549 breast

Row | SMILES | GI50 (DMS 273 small cell lung) [µM] | TGI (DMS 273 small cell lung) [µM] | GI50 (KM20L2 colon) [µM] | TGI (KM20L2 colon) [µM] | GI50 (DLD-1 colon) [µM] | TGI (DLD-1 colon) [µM] | GI50 (IGROV1 ovarian) [µM] | TGI (IGROV1 ovarian) [µM] | GI50 (COLO 205 colon) [µM] | TGI (COLO 205 colon) [µM] | GI50 (NCI-H460 lung) [µM] | TGI (NCI-H460 lung) [µM] | GI50 (K-562 leukemia) [µM] | TGI (K-562 leukemia) [µM] | GI50 (HL-60(TB) leukemia) [µM] | TGI (HL-60(TB) leukemia) [µM] | GI50 (T-47D breast) [µM] | TGI (T-47D breast) [µM] | GI50 (BT-549 breast) [µM] | TGI (BT-549 breast) [µM]
1 | CC(=O)Nc1ccc(/C=C/C(=O)c2sc(-n3nc(-c4ccccc4)cc3-c3ccccc3)nc2C)cc1 | > 100 | > 100 | > 100 | > 100 | > 100 | > 100 | > 100 | > 100 | > 100 | > 100 | > 100 | > 100 | > 100 | > 100 | > 100 | > 100 | – | – | – | –
2 | O=C1N(c2ccccc2)C2(O)C(=O)c3ccccc3C2(O)N1c1ccccc1 (centres undefined) | – | > 100 | – | > 100 | – | > 100 | – | > 100 | – | > 100 | – | > 100 | – | > 100 | – | – | – | – | – | –
3 | COc1cc(Br)c(C2OCCCO2)cc1OCc1ccccc1 | – | > 100 | – | > 100 | – | > 100 | – | > 100 | – | > 100 | – | > 100 | – | > 100 | – | > 100 | – | – | – | –
4 | O=c1ccn([C@@H]2C[C@H](CO)CS(=O)C2)c(=O)[nH]1 (some centres undefined) | – | > 100 | – | > 100 | – | > 100 | – | > 100 | – | > 100 | – | > 100 | – | > 100 | – | > 100 | – | – | – | –
5 | CC(=O)NNc1nc(C)c(C(=O)NNC(=O)C(=O)Nc2ccc(C)cc2[N+](=O)[O-])s1 | – | > 100 | – | > 100 | – | > 100 | – | > 100 | – | > 100 | – | > 100 | – | > 100 | – | > 100 | – | – | – | –
6 | COC(=O)N1C=Cc2c(c(C)c3c([nH]c4ccccc43)c2C)C1C (centres undefined) | – | 39 | – | 29.3 | – | 32.7 | – | 48.7 | – | 34.4 | – | 70.3 | – | 37.7 | – | 52 | – | – | – | –
7 | N#CC(NNC(=O)c1ccccc1O)c1ccccc1O (centres undefined) | – | > 100 | – | > 100 | – | > 100 | – | > 100 | – | > 100 | – | > 100 | – | > 100 | – | > 100 | – | – | – | –
8 | O=C(c1ccccc1)N1CCc2c([nH]c3ccccc23)C1 | – | > 100 | – | > 100 | – | > 100 | – | > 100 | – | 36.7 | – | > 100 | – | > 100 | – | 43.1 | – | – | – | –
9 | COc1cc(/C=C(\C#N)C(=O)c2ccccc2)cc(OC)c1OC | – | > 100 | – | > 100 | – | > 100 | – | – | – | > 100 | – | > 100 | – | > 100 | – | > 100 | – | – | – | –
10 | Cc1[nH]n(C(=O)Cc2ccccc2)c(=O)c1/C=C1\C(=O)C=Cc2ccccc21 | – | > 100 | – | – | – | – | – | – | – | > 100 | – | > 100 | – | > 100 | – | > 100 | – | – | – | –
11 | CC(=O)[O-].O=C([CH-]C(=O)c1ccccc1)c1ccccc1.O=C([CH-]C(=O)c1ccccc1)c1ccccc1.[Dy+3] | – | – | 12.9 | 44.7 | – | – | 18.5 | 93.8 | 15.3 | 34.1 | 6.66 | > 100 | 3.55 | 17.8 | 2.84 | 11.5 | – | – | – | –
12 | O=C(NC(=Nc1ccccc1)SCCSC(=Nc1ccccc1)NC(=O)c1ccccc1)c1ccccc1 | – | > 100 | – | > 100 | – | > 100 | – | > 100 | – | > 100 | – | > 100 | – | > 100 | – | – | – | – | – | –
13 | COc1cc(CC2c3cc(OC)c(OC)cc3CCN2C)c(C(=O)O)cc1OC (centres undefined) | – | > 100 | – | > 100 | – | > 100 | – | – | – | > 100 | – | – | – | > 100 | – | > 100 | – | – | – | –
14 | CC[C@H]1CNC(=O)CC1CC(=O)OC (some centres undefined) | – | > 100 | – | – | – | > 100 | – | > 100 | – | – | – | > 100 | – | – | – | – | – | – | – | –
15 | C=C(C)[C@@H]1CC[C@]2(C(=O)OC)CC[C@]3(C)[C@H](CC[C@@H]4[C@@]5(C)CC/C(=N\OCCC(=NCCC#N)NOCCC#N)C(C)(C)[C@@H]5CC[C@]43C)[C@@H]12 | – | – | – | – | – | – | 14.9 | > 50 | 9.02 | > 50 | 11.1 | > 50 | 2.23 | > 50 | 5.18 | 24.9 | 3.47 | > 50 | 11.3 | > 50
16 | Cc1n[nH]c(C)c1-c1c(C)n[nH]c1C | – | – | – | – | – | – | 1.8 | 4.3 | 1.92 | 4.23 | 1.82 | 3.85 | 1.94 | > 35.6 | 2.26 | 6.95 | 1.91 | 7.09 | 1.97 | 4.26
17 | CN(C)CCCn1c2c(c3ccc(N4CCNCC4)cc3c1=O)C(=O)c1ccccc1-2 | – | – | – | – | – | – | 0.844 | 3.73 | 0.624 | 2.28 | 0.307 | 1.56 | 0.833 | 2.55 | 1.17 | 3.05 | 1.55 | 4.42 | 1.27 | 2.77
